Patent US20260335495A1, “SYNERGISTIC ACTIVITY OF NOVEL COMPOUNDS AGAINST PLANKTONIC AND BIOFILM CELLS OF CLINICALLY RELEVANT PATHOGENS” (priority 2021, published 2026)

Columns and labels:
[1] = tested on: Staphylococcus aureus ON89; assay: MIC and checkerboard (FICI), planktonic cells; format: cell-based
Method: (§1) The MIC was determined by the micro broth dilution method in 96-well plates. […] A 10 μL containing 1×10^5 bacterial cells or 2×10^3 fungal cells were added to each well. The inoculated plates were covered with a lid, sealed with Parafilm, and incubated for 24 h at 37 °C with slight rocking on a tilting platform shaker. After incubation, the optical density at 600 nm (OD 600) of the cultures in each well was measured using an xMark™ Microplate Absorbance Spectrophotometer (Bio-Rad). The MIC was defined as the lowest concentration of antimicrobial compound at which the culture OD600 values was similar to uninoculated control wells. MBCs and MFCs were determined by transferring 100 μL from each well with no apparent growth onto appropriate agar plates, followed by incubation for 24 h at 37 °C.
(§2) The concentrations of antimicrobials used were based on previously determined MIC values. […] Microtiter plates were incubated at 37 °C for 24 h, and the results were analyzed. Each test was performed in duplicate and included a growth control without the addition of any antimicrobials.

C. albicans ON47 [2] = assay: MIC and checkerboard (FICI), planktonic cells; format: cell-based
Method: as §1, §2

Candida albicans SK4b [3] = assay: MIC and checkerboard (FICI), planktonic cells; format: cell-based
Method: as §1, §2

[4] = tested on: Pseudomonas aeruginosa SK1; assay: MIC and checkerboard (FICI), planktonic cells; format: cell-based
Method: as §1, §2

S. epidermidis SK9 [5] = assay: MIC and checkerboard (FICI), planktonic cells; format: cell-based
Method: as §1, §2

Serratia marcescens SK2 [6] = assay: MIC and checkerboard (FICI), planktonic cells; format: cell-based
Method: as §1, §2

Escherichia coli ON29 [7] = assay: MIC and checkerboard (FICI), planktonic cells; format: cell-based
Method: as §1, §2

Proteus mirabilis ON153 [8] = assay: MIC and checkerboard (FICI), planktonic cells; format: cell-based
Method: as §1, §2

E. coli SK2 [9] = assay: MIC and checkerboard (FICI), planktonic cells; format: cell-based
Method: as §1, §2

[10] = tested on: Stenotrophomonas maltophilia ON17; assay: MIC and checkerboard (FICI), planktonic cells; format: cell-based
Method: as §1, §2

[11] = tested on: Staphylococcus epidermidis ON170; assay: MIC and checkerboard (FICI), planktonic cells; format: cell-based
Method: as §1, §2

12 test organisms = assay: MBC/MFC and FMCI, planktonic cells, summary over strains; format: cell-based, bacterial and fungal organisms
Method: as §1, §2

[12] = tested on: Staphylococcus aureus ON89; assay: MBC/MFC and FMCI, planktonic cells; format: cell-based
Method: as §1, §2

S. epidermidis SK9 [13] = assay: MBC/MFC and FMCI, planktonic cells; format: cell-based
Method: as §1, §2

Serratia marcescens SK2 [14] = assay: MBC/MFC and FMCI, planktonic cells; format: cell-based
Method: as §1, §2

Escherichia coli ON29 [15] = assay: MBC/MFC and FMCI, planktonic cells; format: cell-based
Method: as §1, §2

Proteus mirabilis ON153 [16] = assay: MBC/MFC and FMCI, planktonic cells; format: cell-based
Method: as §1, §2

E. coli SK2 [17] = assay: MBC/MFC and FMCI, planktonic cells; format: cell-based
Method: as §1, §2

[18] = tested on: Staphylococcus epidermidis ON170; assay: MBC/MFC and FMCI, planktonic cells; format: cell-based
Method: as §1, §2

[19] = tested on: bacterial and fungal biofilms; assay: Rapid eradication of 48-h-old biofilms within 2 h exposure; format: cell-based, bacterial and fungal strains; conditions: at the MBEC alone, 48-h-old biofilm
Method: This example comprises performing biofilm growth as described above. After biofilm formation, control pegs (n=6) were removed and analyzed to determine the starting biofilm cell numbers via the drop dilution method. The 48-h old biofilms on the pegs were exposed to different concentrations of test antimicrobials, dissolved in an appropriate growth medium, for 2 hours to evaluate their efficacy alone and in combination. […] Following treatment, pegs were washed twice with sterile PBS, and the biofilm cells were dislodged into recovery medium and enumerated as described above.

C. albicans ON47 [20] = assay: MBC/MFC and FMCI, planktonic cells; format: cell-based
Method: as §1, with “The MIC was defined as the lowest concentration of antimicrobial compound at which the culture OD600 values was similar to uninoculated control wells.” left out
as §2

Candida albicans SK4b [21] = assay: MBC/MFC and FMCI, planktonic cells; format: cell-based
Method: as §1, with “The MIC was defined as the lowest concentration of antimicrobial compound at which the culture OD600 values was similar to uninoculated control wells.” left out
as §2

[22] = tested on: Pseudomonas aeruginosa SK1; assay: MBC/MFC and FMCI, planktonic cells; format: cell-based
Method: as §1, with “The MIC was defined as the lowest concentration of antimicrobial compound at which the culture OD600 values was similar to uninoculated control wells.” left out
as §2

[23] = tested on: Stenotrophomonas maltophilia ON17; assay: MBC/MFC and FMCI, planktonic cells; format: cell-based
Method: as §1, with “The MIC was defined as the lowest concentration of antimicrobial compound at which the culture OD600 values was similar to uninoculated control wells.” left out
as §2

O=C(O)CN(CCN(CC(=O)O)CC(=O)O)CC(=O)O.[Na].[Na].[Na].[Na] [TE, tetrasodium ethylenediaminetetraacetic acid]
MIC in combination ([1]; TE + CH in combination): 0.008% | MIC in combination ([1]; TE + ET in combination): 0.015% | MIC ([1]; alone, 24 h, 37 °C): 0.063% | MIC in combination (C. albicans ON47 [2]; TE + CH in combination): 0.125% | MIC in combination (C. albicans ON47 [2]; TE + ET in combination): 0.25% | MIC (C. albicans ON47 [2]; alone, 24 h, 37 °C): 1% | MIC in combination (Candida albicans SK4b [3]; TE + CH in combination): 0.063% | MIC in combination (Candida albicans SK4b [3]; TE + ET in combination): 0.25% | MIC (Candida albicans SK4b [3]; alone, 24 h, 37 °C): 1% | MIC in combination ([4]; TE + CH in combination): 0.5% | MIC in combination ([4]; TE + ET in combination): 0.031% | MIC ([4]; alone, 24 h, 37 °C): 0.25% | MIC in combination (S. epidermidis SK9 [5]; TE + CH in combination): 0.015% | MIC in combination (S. epidermidis SK9 [5]; TE + ET in combination): 0.015% | MIC (S. epidermidis SK9 [5]; alone, 24 h, 37 °C): 0.063% | MIC in combination (Serratia marcescens SK2 [6]; TE + CH in combination): 0.063% | MIC in combination (Serratia marcescens SK2 [6]; TE + ET in combination): 0.5% | MIC (Serratia marcescens SK2 [6]; alone, 24 h, 37 °C): 1% | MIC in combination (Escherichia coli ON29 [7]; TE + CH in combination): 0.008% | MIC in combination (Escherichia coli ON29 [7]; TE + ET in combination): 0.25% | MIC (Escherichia coli ON29 [7]; alone, 24 h, 37 °C): 0.5% | MIC in combination (Proteus mirabilis ON153 [8]; TE + CH in combination): 0.063% | MIC in combination (Proteus mirabilis ON153 [8]; TE + ET in combination): 0.5% | MIC (Proteus mirabilis ON153 [8]; alone, 24 h, 37 °C): 1% | MIC in combination (E. coli SK2 [9]; TE + CH in combination): 0.008% | MIC in combination (E. coli SK2 [9]; TE + ET in combination): 0.015% | MIC (E. coli SK2 [9]; alone, 24 h, 37 °C): 0.5% | MIC in combination ([10]; TE + CH in combination): 0.015% | MIC in combination ([10]; TE + ET in combination): 0.031% | MIC ([10]; alone, 24 h, 37 °C): 0.063% | MIC in combination ([11]; TE + CH in combination): 0.063% | MIC in combination ([11]; TE + ET in combination): 0.015% | MIC ([11]; alone, 24 h, 37 °C): 0.063% | microbicidal activity (12 test organisms): broad-spectrum microbicidal activity | MBC/MFC in combination ([12]; TE + CH in combination): 0.008% | MBC/MFC in combination ([12]; TE + ET in combination): 0.25% | MBC/MFC ([12]; alone): 1% | MBC/MFC in combination (S. epidermidis SK9 [13]; TE + CH in combination): 0.008% | MBC/MFC in combination (S. epidermidis SK9 [13]; TE + ET in combination): 0.031% | MBC/MFC (S. epidermidis SK9 [13]; alone): 0.5% | MBC/MFC in combination (Serratia marcescens SK2 [14]; TE + CH in combination): 0.125% | MBC/MFC in combination (Serratia marcescens SK2 [14]; TE + ET in combination): 0.25% | MBC/MFC (Serratia marcescens SK2 [14]; alone): 2% | MBC/MFC in combination (Escherichia coli ON29 [15]; TE + CH in combination): 0.008% | MBC/MFC in combination (Escherichia coli ON29 [15]; TE + ET in combination): 0.25% | MBC/MFC (Escherichia coli ON29 [15]; alone): 1% | MBC/MFC in combination (Proteus mirabilis ON153 [16]; TE + CH in combination): 0.125% | MBC/MFC in combination (Proteus mirabilis ON153 [16]; TE + ET in combination): 0.063% | MBC/MFC (Proteus mirabilis ON153 [16]; alone): 2% | MBC/MFC in combination (E. coli SK2 [17]; TE + CH in combination): 0.015% | MBC/MFC in combination (E. coli SK2 [17]; TE + ET in combination): 0.25% | MBC/MFC (E. coli SK2 [17]; alone): 0.5% | MBC/MFC in combination ([18]; TE + CH in combination): 0.25% | MBC/MFC in combination ([18]; TE + ET in combination): 0.031% | MBC/MFC ([18]; alone): 0.5% | biofilm eradication [19]: failed to eradicate the preformed biofilms | MBC/MFC in combination (C. albicans ON47 [20]; TE + CH in combination): 0.031% | MBC/MFC in combination (C. albicans ON47 [20]; TE + ET in combination): 0.25% | MBC/MFC (C. albicans ON47 [20]; alone): 2% | MBC/MFC in combination (Candida albicans SK4b [21]; TE + CH in combination): 0.125% | MBC/MFC in combination (Candida albicans SK4b [21]; TE + ET in combination): 0.25% | MBC/MFC (Candida albicans SK4b [21]; alone): 1% | MBC/MFC in combination ([22]; TE + CH in combination): 0.031% | MBC/MFC in combination ([22]; TE + ET in combination): 0.031% | MBC/MFC ([22]; alone): 1% | MBC/MFC in combination ([23]; TE + CH in combination): 0.031% | MBC/MFC in combination ([23]; TE + ET in combination): 0.125% | MBC/MFC ([23]; alone): 1%
